Experimental data from a melting point compilation (Tetko et al.; mined from patent text by program, amines drawn as free bases though some values may be those of a salt).

| SMILES | melting point [°C] |
| --- | --- |
| Nc1ccc(C=Cc2ccc3ccccc3n2)cc1 | 178 to 180 |
| Cc1ncoc1C(=O)Nc1ccc(-n2nc(C(F)(F)F)cc2C2CC2)c(F)c1 | 148 to 150 |
| CO/C=C(/C(=O)OC)c1cccnc1Oc1cccc(O)c1 | 163 to 165 |
| CSCCC1=NS(=O)(=O)NC(N)=N1 | 243 to 246 |
| CC#CCOc1ccc(S(=O)(=O)N(C)C(CCCSc2ccc(Cl)cc2)C(=O)NO)cc1 (stereo not drawn) | 144 to 146 |
| CSC1=C(c2ccccc2)C(=O)N(Nc2ccccc2)C1=O | 86 to 88 |
| Cc1coc(-c2ccc3c(c2)c2cc(-c4ccc(Cl)cc4Cl)c(=O)n(C)c2n3C)n1 | 258 to 261 |
| Nc1cc(OCc2ccccc2)ccc1NC(=O)c1ccc(OCc2ccccc2)c(C23CC4CC(CC(C4)C2)C3)c1 | 166 to 170 |
| CC(C)Cn1c(=O)n(C)c(=O)c2c(SCCCC(N)=O)n(Cc3cccc4ccccc34)cc21 | 162 to 165 |
| O=C(O)Cc1cccc(OCCCN(Cc2cccc(F)c2F)CC(c2ccccc2)c2ccccc2)c1 | 148 |
| COc1cc(-c2ccc(O)c(C34CC5CC(CC(C5)C3)C4)c2)cc(C=C2SC(N3CCOCC3)=NC2=O)c1O | 310 to 312 |
| CN1Cc2cccc(Cl)c2S1(=O)=O | 95 to 97 |
| Nc1ccc2ccc(Oc3ccccc3)nc2n1 | 196 |
| FC(F)(F)CNC(=S)Nc1cncc(Cl)n1 | 170 to 172 |
| O=C(Nc1nc(C(F)(F)F)co1)C1c2ccccc2Oc2c(Cl)cccc21 (racemic) | 212 |
| CCCCc1nc(Cl)c(C(=O)O)n1Cc1ccc(-c2ccccc2-c2c(O)c(=O)c2=O)cc1 | 168 |
| O=c1nc(Nc2ccc(I)cc2)sc2ncccc12 | 263 to 264 |
| COC(=O)c1ccccc1Cn1ccc(OCc2ccc(F)cc2)c(Br)c1=O | 161 to 165 |
| O=C1Nc2cccc(-c3cccc(NC(=O)c4cccc(Br)c4)c3)c2/C1=C/c1ccc[nH]1 | 251 to 253 |
| CC1=CC(N)(C(=O)NCCC(C)n2ccnc2)CC=C1 (stereo not drawn) | 128 to 130 |
| CC(C)NC(=O)c1ccn2nc(-c3ccccc3)c(-c3ccc(=O)n(C(C)C)n3)c2c1 | 230 to 232 |
| N#CCCNC(=O)C1=CC(CF)(CF)Oc2ccc(C#N)cc21 | 170 to 172 |
| CN(C[C@H](O)c1cccc(OCC(=O)O)c1)c1cnc(-c2ccccc2)c(-c2ccccc2)n1 | 158 to 159 |
| COc1cc2c(c3c1OC(C)(C)C3)C(c1cccc(NC(=O)c3cccnc3)c1)=NC(C)(C)C2 | 213 to 219 |
| O=C1N(Cc2ccccn2)c2cccc(-c3cnc4ccccc4c3)c2C12COc1cc3c(cc12)OCCO3 (stereo not drawn) | 228 to 230 |

| SMILES | melting point [°C] |
| --- | --- |
| CCC1=CC(=O)C2(C)CCC3c4ccc(OC)cc4CCC3C12 (stereo not drawn) | 103 to 106 |
| COc1cc2c(Oc3ccc(Cl)cc3F)ncnc2cc1OCc1ccncc1 | 197 to 198 |
| O=C(O)CCCc1cc2nc(Cl)ccc2n1S(=O)(=O)c1cccc(C(F)(F)F)c1 | 188 |
| CCCCCCCCCCCCCC(=O)O[C@H](CCCCCCCCCCC)CC(=O)N[C@@H](CO)C(=O)OCc1ccccc1 | 56 to 61 |
| O=C(Nc1ccccn1)C(CC1CCCC1)c1ccc(-c2cccc3ccccc23)cc1 (stereo not drawn) | 73 to 77 |
| COc1ccc(S(=O)(=O)N(Cc2cccnc2)c2c(C(=O)NO)cnc3c2c(C)nn3C)cc1 | 202 to 204 |
| OCc1cccc(-c2ccc3nc(-c4ccc(Cl)cc4)cn3c2)c1 | 181 to 182 |
| O=C1CCC2=C1C(c1ccc(Cl)c(F)c1)C1=C(CCS1)N2 (stereo not drawn) | > 260 |
| CN1CC(=O)N(c2ccc3c(c2)CCC3)C1=S | 158 to 160 |
| c1ccc(-c2cc3n(n2)CCNC3CC2CCCCC2)cc1 (racemic) | 128 to 130 |
| COc1ccc(C(=CC(=O)N2CCOCC2)c2ccc(Cl)nc2)cc1OC | 154 to 160 |
| Cc1cc(N)nc(N)n1 | 183 |
| FC(F)(F)Oc1ccc(-c2ccc(CCl)cn2)cc1 | 34 to 36 |
| COc1cc2ncnc(N3CCc4c(Br)ccc(C)c43)c2cc1OC | 223 to 225 |
| C[C@H]1C(S(=O)(=O)c2ccccc2)C=C(Sc2ccccc2)CC[C@H]1O[Si](C)(C)C (stereo partly drawn) | 114 to 116 |
| CC(=O)OC1CSC(Oc2cncc(-c3ccco3)c2)C(OC(C)=O)C1OC(C)=O (stereo not drawn) | 184 |
| CCC(=O)NCCc1c(-c2ccccc2)nn2ccc3c(c12)CCO3 | 169 to 170 |
| CC(Cc1ccc(OCC(=O)O)c(F)c1)NS(=O)(=O)c1ccccc1 (stereo not drawn) | 148 to 150 |
| Cc1c(Cl)nn2cc(-c3ccc(F)cc3)nc2c1C | 172 to 174 |
| CC(C)(C)c1c(Cl)nc(Cl)nc1Cl | 58 to 59 |
| CCOCc1nc2c(N)nc3cc(OCCCCCCNC(C)=O)ccc3c2n1CC(C)(C)NS(C)(=O)=O | 169 to 171 |
| Cc1cccc2c1nc(-c1ccccc1F)n2CC(O)C(C)(C)C (stereo not drawn) | 178 to 179 |
| O=C(O)CS(=O)(=O)CCCCCNS(=O)(=O)c1ccc(Cl)cc1 | 193 to 194 |
| CCNC(Cc1ccc(O)cc1)C(=O)OCC (stereo not drawn) | 87 to 89 |
| CN1CCN(c2nc3ccc(Br)c4c3n2CCC4)CC1 | 132 to 133 |

| SMILES | melting point [°C] |
| --- | --- |
| COC(=O)c1cccc(N)c1CS(=O)(=O)NC(C)(C)C | 123 to 125 |
| N#CCNC(=O)C(=O)Oc1ccc([N+](=O)[O-])cc1 | 123 to 124 |
| COC(=O)Cc1csc2c(OCc3cc(-c4ccc(Cl)cc4)on3)cccc12 | 155 to 156 |
| CC(C)c1cccc(COCCCn2ccnc2)c1NC(=O)CC1c2ccccc2Oc2ccccc21 | 131 to 132 |
| Cc1nc(-c2cn(CCc3ccc(F)cc3)nn2)sc1C(=O)NCc1ccccc1 | 181 to 182 |
| CC(C)(C)COC(=O)c1cc(Cl)c(F)c(Cl)c1 | 96 to 98 |
| C=Cc1ncn2c1[C@@H]1CCCN1C(=O)c1c(Cl)cccc1-2 | 213 to 215 |
| COc1ccc(Cl)c(CC#N)c1 | 62 to 65 |
| CC(c1oc2ccc(Br)cc2c(=O)c1-c1ccccc1)n1cnc2c(N)ncnc21 (stereo not drawn) | 230 to 231 |
| CC(C)C1CC(=O)C(=C2CCCN2)C(=O)C1 (stereo not drawn) | 143 to 145 |
| O=c1c2c(Cl)cccc2nc(C(S)c2ncnc3[nH]cnc23)n1-c1ccccc1F (stereo not drawn) | 244 |
| Cc1c(OCC(=O)O)cc2c(c1Cl)C(=O)C1(CCCC1)C2=O | 204 to 205 |
| O=C(NCc1ccncc1)c1cc2ccnc(Cl)c2[nH]1 | > 340 |
| CN(C)C(=O)c1nc(-c2ccncc2)nc2c1c1ccc(Cl)cc1n2C | 268 to 269 |
| CN(CCN(C)c1ccc([N+](=O)[O-])cc1)c1ccncc1 | 126 to 127 |
| Cc1oc(-c2ccco2)nc1COc1ccc(COc2nn(Cc3ccccc3)cc2C=O)cc1 | 118 to 119 |
| CCOC(=O)C(=Cc1ccccn1)C(=O)c1ccc(F)cc1 | 128 to 129 |
| C=C(C)C(=O)OCCOc1ccc(-c2ccccc2)cc1 | 59 to 60 |
| CC(=O)NCC1CN(c2ccc(N3CC4CCCN(C(=O)OCc5ccccc5)C4C3)c(F)c2)C(=O)O1 (stereo not drawn) | 74 to 76 |
| Cc1ccc(-c2ccc(S(=O)(=O)Nc3onc(C)c3Br)s2)cc1 | 175 |
| COc1nc2cc(Cl)c(Cl)cc2nc1NS(=O)(=O)c1cccc(Cl)c1Cl | 283 to 285 |
| N#CCC1CCN(C(c2ccccc2)c2ccccc2)CC1 | 103 to 104 |
| Cc1ccc(S(=O)(=O)N2[C@@H](CCC#N)CC[C@H]2c2ccc(F)cc2)cc1 (racemic) | 86 |
| C=CCOC(=O)c1cccc(NC(=O)NC(CC(=O)OC(C)(C)C)C(=O)Nc2ccccc2C(=O)c2ccc(OC)cc2)c1 (stereo not drawn) | 190 to 191 |
| COc1cc(O)ccc1C1=NC2=CCC(=O)NC2=N1 | > 270 |

| SMILES | melting point [°C] |
| --- | --- |
| Cn1c(=O)c(Oc2ccccc2F)cc2cnc(S(C)(=O)=O)nc21 | 158 to 162 |
| c1cc(CC[C@H]2CNCCN2)ccn1 | 113 to 116 |
| C=CC[C@@](O)(C(=O)O)c1ccccc1 | 132 |
| Cc1cc2cc(CN3CCC(CC(=O)N4CCCCC4)CC3)cnc2cc1NC(=O)c1ccc(-c2ccc(F)cc2)cc1 | 216 |
| CC(C)(C)c1nnc(Oc2ccc(N)cc2)o1 | 80 to 81 |
| COCOc1cc(Cl)ccc1-c1cc(-c2cccc(C(=O)NCCCn3ccnc3)c2)c(C#N)c(NC(=O)c2ccccc2OC)n1 | 100 to 101 |
| CCCCCCc1ccc(S(=O)(=O)Nc2nncs2)cc1 | 125 to 126 |
| Cc1[nH]c2ccc(CCN(C)C3CCOCC3)cc2c1C(=O)OCc1ccccc1 | 109 to 111 |
| CCOC(=O)C(CC#N)(C(=O)OCC)C1COC(=O)C1 (stereo not drawn) | 77 to 78 |
| COC(=O)[C@@H]1CN(CCCCN2C(=O)c3cc(Cl)ccc3S2(=O)=O)CC[C@H]1n1c(=O)[nH]c2ccccc21 (relative stereo) | 170 to 176 |
| COc1ccc2c(c1)/C(=C/CNC(C)=O)CCC2 | 92 to 94 |
| COC1(c2cccc(OCc3ccc(-n4ccnc4C)cc3)c2)CCOCC1 | 136 to 137 |
| COc1ccc([N+](=O)[O-])c(C=C2C(=O)NC(=O)N2C)c1 | 257 to 260 |
| O=C(c1ccccc1)c1cnc2c(cnn2Cc2ccco2)c1O | 102 |
| COc1ccc(NS(=O)(=O)c2ccccc2Br)cc1N(C)C1CCN(C)CC1 | 119 to 121 |
| CCCCc1nn(Cc2ccc(-c3ccccc3-c3nnn[nH]3)cc2)c(=O)n1Cc1ccc(-c2ccccc2-c2nnn[nH]2)cc1 | 150 to 151 |
| Nc1ccc(-c2ccncc2)cn1 | 192 to 195 |
| Nc1ncnc2c1ncn2OC(CO)COCP(=O)(O)O (stereo not drawn) | 222 to 225 |
| NS(=O)(=O)OCCOc1cccc(Cl)c1 | 66 to 69 |
| O=C1N[C@@H](C(=O)O)CCCCCC[C@@H]1CS (relative stereo) | 180 to 185 |
| Cc1ccc(COc2ncc(F)c(N)n2)cc1 | 111 to 112 |
| CC(=O)c1ccc2c(c1)ncn2-c1cccc(-c2cccnc2)c1 | 195 to 197 |
| CCOC(=O)c1ccc(N=C(Nc2ccc(C(=O)OCC)cc2)c2ccccc2)cc1 | 170 to 172 |
